One assay addresses T1, human TLR7 (Homo sapiens, UniProt Q9NYK1).
T1 construct: host or cells: HEK293 NF-kB reporter cells
T1 sequence (Q9NYK1 27-1049): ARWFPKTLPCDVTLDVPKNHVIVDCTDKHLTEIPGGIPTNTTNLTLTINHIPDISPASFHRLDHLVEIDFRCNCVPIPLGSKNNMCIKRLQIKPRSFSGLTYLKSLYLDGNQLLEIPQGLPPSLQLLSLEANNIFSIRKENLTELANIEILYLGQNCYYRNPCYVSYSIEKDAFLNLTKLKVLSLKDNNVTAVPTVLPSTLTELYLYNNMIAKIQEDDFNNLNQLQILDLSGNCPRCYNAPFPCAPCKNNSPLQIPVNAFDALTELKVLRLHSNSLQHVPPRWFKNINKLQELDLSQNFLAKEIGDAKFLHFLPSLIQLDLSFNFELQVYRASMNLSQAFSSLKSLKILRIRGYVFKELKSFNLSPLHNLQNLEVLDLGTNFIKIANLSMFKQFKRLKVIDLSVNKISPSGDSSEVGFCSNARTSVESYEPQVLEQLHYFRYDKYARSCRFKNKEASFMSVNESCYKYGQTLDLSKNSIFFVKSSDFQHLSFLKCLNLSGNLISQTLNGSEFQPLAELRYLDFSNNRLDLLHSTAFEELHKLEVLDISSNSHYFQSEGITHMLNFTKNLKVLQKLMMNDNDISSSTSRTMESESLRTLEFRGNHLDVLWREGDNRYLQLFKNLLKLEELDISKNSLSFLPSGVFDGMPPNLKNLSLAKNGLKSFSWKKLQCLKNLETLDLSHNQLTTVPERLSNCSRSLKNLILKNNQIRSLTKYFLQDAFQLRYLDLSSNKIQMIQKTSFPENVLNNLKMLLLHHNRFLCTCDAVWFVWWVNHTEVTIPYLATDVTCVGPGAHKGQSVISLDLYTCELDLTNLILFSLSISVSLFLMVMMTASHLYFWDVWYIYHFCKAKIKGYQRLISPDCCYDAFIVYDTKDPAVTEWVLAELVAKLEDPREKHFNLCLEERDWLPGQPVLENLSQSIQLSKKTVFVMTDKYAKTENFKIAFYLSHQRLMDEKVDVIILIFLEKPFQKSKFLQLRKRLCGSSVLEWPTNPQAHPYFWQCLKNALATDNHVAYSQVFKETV
Kind of assay: HEK reporter assay, HEK293 reporter cells expressing human TLR7. As to conditions: for EC50: HEK293 NFKB reporter cells expressing human TLR7, read-out: HEK293 hTLR7 EC50; for TLR7 activity after NHBoc modification of the dipropylamide, versus parent compound: Human HEK293 reporter cells, BZA-2 vs BZA-1, BZA-4 vs BZA-3 (FIG. 1B, 1D). The format is cell-based. The method, then:
Each compound was characterized by mass spectrometry and shown to have the mass indicated. Activity against HEK293 NFKB reporter cells expressing human TLR7 or human TLR8 was measured according to Example 30.
(§1) HEK293 reporter cells expressing human TLR7 or human TLR8 were purchased from Invivogen and vendor protocols were followed for cellular propagation and experimentation. Briefly, cells were grown to 80-85% confluence at 5% CO2 in DMEM supplemented with 10% FBS, Zeocin, and Blasticidin. Cells were then seeded in 96-well flat plates at 4×10^4 cells/well with substrate containing HEK detection medium and immunostimulatory molecules. Activity was measured using a plate reader at 620-655 nm wavelength.
(In a reporter assay the amount or activity of a reporter protein is the signal.)

The next assay has as its target T2, human TLR8 (Homo sapiens, UniProt Q9NR97).
T2 construct: host or cells: HEK293 NF-kB reporter cells
T2 sequence (Q9NR97 27-1041): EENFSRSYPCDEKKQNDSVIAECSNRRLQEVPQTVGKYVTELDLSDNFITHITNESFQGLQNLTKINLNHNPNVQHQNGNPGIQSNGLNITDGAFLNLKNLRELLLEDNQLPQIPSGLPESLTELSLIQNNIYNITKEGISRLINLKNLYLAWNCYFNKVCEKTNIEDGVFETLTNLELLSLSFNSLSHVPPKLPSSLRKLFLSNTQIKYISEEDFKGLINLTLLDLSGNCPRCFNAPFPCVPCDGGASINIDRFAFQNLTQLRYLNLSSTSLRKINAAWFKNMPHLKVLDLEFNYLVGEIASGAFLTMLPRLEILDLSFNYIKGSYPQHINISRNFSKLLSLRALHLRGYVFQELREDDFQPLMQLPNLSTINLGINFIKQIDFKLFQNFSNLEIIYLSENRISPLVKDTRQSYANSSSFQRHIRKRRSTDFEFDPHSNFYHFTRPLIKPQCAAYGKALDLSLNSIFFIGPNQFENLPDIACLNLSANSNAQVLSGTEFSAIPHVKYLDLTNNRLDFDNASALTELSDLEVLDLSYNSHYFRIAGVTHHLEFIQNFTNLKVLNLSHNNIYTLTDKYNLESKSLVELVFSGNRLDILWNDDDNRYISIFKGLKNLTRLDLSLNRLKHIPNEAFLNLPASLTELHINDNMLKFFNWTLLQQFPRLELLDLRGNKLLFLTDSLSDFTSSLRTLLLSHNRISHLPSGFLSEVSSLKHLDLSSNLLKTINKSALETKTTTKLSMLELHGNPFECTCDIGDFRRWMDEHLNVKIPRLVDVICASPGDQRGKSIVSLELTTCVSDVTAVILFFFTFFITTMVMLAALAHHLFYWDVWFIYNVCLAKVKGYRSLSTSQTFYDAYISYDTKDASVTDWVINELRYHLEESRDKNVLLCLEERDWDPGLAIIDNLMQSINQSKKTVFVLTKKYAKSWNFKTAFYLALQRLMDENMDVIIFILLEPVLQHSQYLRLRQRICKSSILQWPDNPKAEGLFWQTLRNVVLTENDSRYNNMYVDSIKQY
Kind of assay: HEK reporter assay, HEK293 reporter cells expressing human TLR8. The format is cell-based. As to conditions: for EC50: HEK293 NFKB reporter cells expressing human TLR8, read-out: HEK293 hTLR8 EC50; for TLR8 activity after NHBoc modification of the dipropylamide, versus parent compound: Human HEK293 reporter cells, BZA-2 vs BZA-1, BZA-4 vs BZA-3 (FIG. 1A, 1C). The method, then:
Activity against HEK293 NFKB reporter cells expressing human TLR7 or human TLR8 was measured according to Example 30.
as §1

Results on 14 molecules are retold here after patent US20220347310A1, “AMIDE-LINKED, AMINOBENZAZEPINE IMMUNOCONJUGATES, AND USES THEREOF” (BOLT BIOTHERAPEUTICS, INC., priority 2019, published 2022).

For orientation: EC50 means the concentration needed to bring the measured effect to its halfway point. In the case of `CCCN(CCCNC(=O)OC(C)(C)C)C(=O)C1=Cc2ccc(C(=O)Nc3ccccc3)cc2N=C(N)C1` [8AmBza-9, tert-butyl (3-(2-amino-8-(phenylcarbamoyl)-N-propyl-3H-benzo [b]azepine-4-carboxamido)propyl)carbamate], the EC50 is greater than 9 µM on human TLR7 and 0.127 µM at human TLR8. Consider `CCCN(OCC)C(=O)C1=Cc2ccc(C(=O)Nc3ccccc3)cc2N=C(N)C1` [8AmBza-15], for which the EC50 is 4.86 µM on human TLR7 and 0.034 µM on human TLR8.

For `CCCN(CCC(F)(F)F)C(=O)C1=Cc2ccc(C(=O)Nc3ccccc3)cc2N=C(N)C1` [8AmBza-14], the figures for the EC50 at human TLR7 and at human TLR8 were greater than 9 µM and 0.245 µM, respectively. `CCCN(Cc1ccc(CN)cc1)C(=O)C1=Cc2ccc(C(=O)Nc3ccccc3)cc2N=C(N)C1` [8AmBza-16]: the EC50 on human TLR7 is greater than 9 µM; at human TLR8, 0.077 µM.

Regarding `CCCN(CCC)C(=O)C1=Cc2ccc(C(=O)Nc3cncc(CNC(=O)CNC(=O)OC(C)(C)C)c3)cc2N=C(NC(=O)OC(C)(C)C)C1` [8AmBza-22], the EC50 at human TLR7 and at human TLR8 was greater than 9 µM throughout. On to `CCCN(OCC)C(=O)C1=Cc2ccc(C(=O)Nc3ccc(N4CCC(C(=O)NCCN)CC4)nc3)cc2N=C(N)C1` [8AmBza-18, 2-amino-N8-[6-[4-(2-aminoethylcarbamoyl)-1-piperidyl]-3-pyridyl]-N4-ethoxy-N4-propyl-3H-1-benzazepine-4,8-dicarboxamide], for which the values for the EC50 at human TLR7 and on human TLR8 were greater than 9 µM and 5.62 µM, respectively. Consider `CCCN(Cc1ccc(CNC(=O)OC(C)(C)C)cc1)C(=O)C1=Cc2ccc(C(=O)Nc3ccccc3)cc2N=C(N)C1` [8AmBza-17], for which the results for the EC50 at human TLR7 and at human TLR8 were greater than 9 µM and 0.782 µM, respectively. Turning to `CCCN(CCCNC(=O)OC(C)(C)C)C(=O)C1=Cc2ccc(C(=O)Nc3cnc(NCCNC(=O)OC(C)(C)C)nc3)cc2N=C(N)C1` [8AmBza-7, tert-butyl N-[3-[[2-amino-8-[[2-[2-(tert-butoxycarbonylamino)ethylamino]pyrimidin-5-yl]carbamoyl]-3H-1-benzazepine-4-carbonyl]-propyl-amino]propyl]carbamate], the concentration for a half-maximal effect (EC50) on human TLR7 was greater than 9 µM; on human TLR8, 1.76 µM. As for `CCCN(CCC)C(=O)C1=Cc2ccc(C(=O)Nc3cncc(CNC(=O)CN)c3)cc2N=C(N)C1` [8AmBza-21], the EC50 at human TLR7 was greater than 9 µM. `CCCN(CCCNC(=O)OC(C)(C)C)C(=O)C1=Cc2ccc(NC(=O)c3ccccc3)cc2N=C(N)C1` [BZA-4, tert-butyl (3-(2-amino-8-benzamido-N-propyl-3H-benzo[b]azepine-4-carboxamido)propyl)carbamate, reference compound]: the “TLR7 activity after NHBoc modification of the dipropylamide, versus parent compound” value on human TLR7 is recorded as “increases TLR 7 activity”. For the same molecule, on human TLR8, the “TLR8 activity after NHBoc modification of the dipropylamide, versus parent compound” value is recorded as “does not affect TLR 8 activity”. On to `CCCN(CCC)C(=O)C1=Cc2ccc(C(=O)Nc3cnc4c(c3)CNCC4)cc2N=C(N)C1` [8AmBza-19], for which the EC50 at human TLR8 stood at 2.18 µM. Consider `CCCN(CCCNC(=O)OC(C)(C)C)C(=O)C1=Cc2ccc(-c3cccc(S(=O)(=O)N4CC(CO)C4)c3)cc2N=C(N)C1` [BZA-2, tert-butyl (3-(2-amino-8-(3-((3-(hydroxymethyl)azetidin-1-yl)sulfonyl)phenyl)-N-propyl-3H-benzo[b]azepine-4-carboxamido)propyl)carbamate, reference compound], for which the “TLR7 activity after NHBoc modification of the dipropylamide, versus parent compound” value on human TLR7 is “significantly increasing TLR7 activity”. The “TLR8 activity after NHBoc modification of the dipropylamide, versus parent compound” value at human TLR8 was “minimally perturbs TLR8 activity”.

In the case of `CCCN(CCC)C(=O)C1=Cc2ccc(C(=O)Nc3cnc4c(c3)CN(C(=O)OC(C)(C)C)CC4)cc2N=C(NC(=O)OC(C)(C)C)C1` [8AmBza-20], the values for the EC50 on human TLR7 and at human TLR8 were 8.13 µM and 6.08 µM, respectively. As for `CCCN(CCCNC(=O)OC(C)(C)C)C(=O)C1=Cc2ccc(C(=O)Nc3cccc(COCCOCCNC(=O)OC(C)(C)C)c3)cc2N=C(N)C1` [8AmBza-8, tert-butyl N-[3-[[2-amino-8-[[3-[2-[2-(tert-butoxycarbonylamino)ethoxy]ethoxymethyl]phenyl]carbamoyl]-3H-1-benzazepine-4-carbonyl]-propyl-amino]propyl]carbamate], the EC50 on human TLR7 is greater than 9 µM; on human TLR8 it was 0.862 µM.
